{"source": "patent US10130724B2", "about": "“Mini-gastrin analogue, in particular for use in CCK2 receptor positive tumour diagnosis and/or treatment” (PAUL SCHERRER INSTITUT, priority 2013, dated 2018)", "key": {"[1]": {"tested_on": "human CCK-2 receptor transfected A431 cells", "experiment": "Biodistribution of 177Lu-labelled mini-gastrin analogues in tumour-bearing CD1 nu/nu mice", "format": "in vivo", "conditions": "4 hours after injection", "description": "PP-F11N has been investigated according to the CD1 nu/nu mice model. […] FIG. 2 illustrates the biodistribution of PP-F11, PP-F11N and oxidized PP-F11 ox (oxidized PP-F11) after 4 hours in the athymic CD1 nu/nu mice model. Tumour positive: with human CCK-2 receptor transfected A431 cells on one side of the mouse; tumor negative: CCK-2 receptor negative A431 cells on the other side of the mouse. The effect of the higher tumor uptake by the exchange of methionine with norleucine is specifically apparent with compounds having the DGlu6 sequence, different from compounds having a sequence with DGLn6 which is referred to as PP-F10.\nCD1 nu/nu mice were injected with 5×10^6 A431 cells. CCK-2 receptor positive A431 cells' were injected into one flank and mock cells on the other as an unspecific control. The tumors reach a weight of about 80 to 120 mg after about 10 days. 150-200 kBq (5 pmol) of the radiolabelled peptides were injected into the tail vein. Mice were killed by CO2 asphyxiation after defined time points post injection. The organs were dissected, weighted and the activity was measured. The % injected activity per gram (% i.A./g) was calculated. The animal experiments were approved by the local animal welfare committee and performed according to national regulations."}, "[2]": {"experiment": "Stability of 177Lu-labelled mini-gastrin analogues in human serum, metabolites by HPLC", "format": "in vitro ADME", "conditions": "compared to PP-F11, PP-F10N and PP-F10", "description": "12 MBq of the radiolabelled compound was incubated in 2 mL fresh human plasma. A 40 μL probe was taken after 0, 1, 2, 18, 24, 48 and 72 h and added 200 μL (50% Methanol and 50% Acetonitril) in a Mini-UniPrep Filter. The solution is filtered after vortexing. 40 μL of the filtered solution is analyzed by HPLC."}}}
{"smiles": "CCCC[C@H](NC(=O)[C@H](Cc1c[nH]c2ccccc12)NC(=O)CNC(=O)[C@H](Cc1ccc(O)cc1)NC(=O)[C@H](C)NC(=O)[C@@H](CCC(=O)O)NC(=O)[C@@H](CCC(=O)O)NC(=O)[C@@H](CCC(=O)O)NC(=O)[C@@H](CCC(=O)O)NC(=O)[C@@H](CCC(=O)O)NC(=O)[C@@H](CCC(=O)O)NC(=O)CN1CCN(CC(=O)O)CCN(CC(=O)O)CCN(CC(=O)O)CC1)C(=O)N[C@@H](CC(=O)O)C(=O)N[C@@H](Cc1ccccc1)C(N)=O", "note": "[PP-F11N]", "values": [{"measurement": "accumulation in the kidneys", "setting": "[1]", "value": "very few accumulation in the kidneys"}, {"measurement": "pharmacologic stability", "setting": "[2]", "value": "highest pharmacologic stability of all probands"}]}
